Data on 1 compound can be found in article PMC9527314, “Structural insights into the binding of zoledronic acid with RANKL via computational simulations” (Frontiers in Molecular Biosciences, 2022).

pKd: −log10 of the molar value.

The assay concerns the target T1, human RANKL trimer (Homo sapiens, UniProt O14788).
T1 construct: gene TNFSF11; recombinant human RANKL trimer protein from ACROBiosystems; homotrimer; amine-coupled to CM5 chip
T1 sequence (O14788 140-317 limits assumed): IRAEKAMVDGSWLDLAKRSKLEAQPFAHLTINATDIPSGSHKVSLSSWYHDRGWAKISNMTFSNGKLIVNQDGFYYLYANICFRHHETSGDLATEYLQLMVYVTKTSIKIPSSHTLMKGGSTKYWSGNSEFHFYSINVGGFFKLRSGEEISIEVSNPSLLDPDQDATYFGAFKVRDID
As to the kind of experiment: SPR (Biacore T200), RANKL immobilised on CM5 chip, steady-state fit. The format is binding. In general terms: SPR reads the build-up and loss of mass on a sensor chip optically.

The compound `O=P(O)(O)C(O)(Cn1ccnc1)P(=O)(O)O` [Zoledronic acid] gave a pKd of 3.64.

What is called pKd is the Kd on a negative log10 scale, so that one unit is a factor of ten. Low values mean a high Kd, high ones a low Kd.
